Assay results reported in ChEMBL document CHEMBL2429722, “Synthesis of the non-peptidic snail toxin 6-bromo-2-mercaptotryptamine dimer (BrMT)(2), its lower and higher thio homologs and their ability to modulate potassium ion channels” (Bioorg Med Chem Lett, 2013).

Tests used:
Type in all cases: cell-based
Conditions in all cases: Oocyte
[1] = target: Potassium voltage-gated channel subfamily A member 1 (Mus musculus) (UniProt P16388); assay: Inhibition of mouse Kv1.1 channel expressed in Xenopus laevis oocytes assessed as reduction of current amplitude at 20 uM after 2 mins by two-electrode voltage clamp assay relative to control
Chain of Potassium voltage-gated channel subfamily A member 1 (Mus musculus) (P16388 whole entry): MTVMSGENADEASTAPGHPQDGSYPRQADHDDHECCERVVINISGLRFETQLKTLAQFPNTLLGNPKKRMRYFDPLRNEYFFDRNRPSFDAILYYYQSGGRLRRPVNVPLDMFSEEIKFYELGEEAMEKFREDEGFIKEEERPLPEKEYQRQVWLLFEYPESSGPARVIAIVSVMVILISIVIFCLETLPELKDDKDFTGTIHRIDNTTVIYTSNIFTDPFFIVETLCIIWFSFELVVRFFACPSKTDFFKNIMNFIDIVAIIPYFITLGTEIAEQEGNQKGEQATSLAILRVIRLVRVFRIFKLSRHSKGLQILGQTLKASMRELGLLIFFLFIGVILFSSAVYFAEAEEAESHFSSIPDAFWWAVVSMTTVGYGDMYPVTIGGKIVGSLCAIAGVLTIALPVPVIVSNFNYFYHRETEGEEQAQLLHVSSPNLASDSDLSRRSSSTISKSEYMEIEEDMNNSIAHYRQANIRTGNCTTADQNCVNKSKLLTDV

[2] = target: Potassium voltage-gated channel subfamily A member 1 (Mus musculus) (UniProt P16388); assay: Inhibition of mouse Kv1.1 channel expressed in Xenopus laevis oocytes assessed as -50 mV current-induced channel closing time at 20 uM after 2 mins by two-electrode voltage clamp assay (reference value: 14.6 +/- 0.3 ms)
[3] = target: Potassium voltage-gated channel subfamily A member 1 (Mus musculus) (UniProt P16388); assay: Inhibition of mouse Kv1.1 channel expressed in Xenopus laevis oocytes assessed as decrease in +60 mV current-induced time constant of activation at 20 uM after 2 mins by two-electrode voltage clamp assay relative to control
[4] = target: Potassium voltage-gated channel subfamily A member 1 (Mus musculus) (UniProt P16388); assay: Inhibition of mouse Kv1.1 channel expressed in Xenopus laevis oocytes assessed as reduction of current amplitude at 8 uM after 2 mins by two-electrode voltage clamp assay relative to control
[5] = target: Potassium voltage-gated channel subfamily A member 1 (Mus musculus) (UniProt P16388); assay: Inhibition of mouse Kv1.1 channel expressed in Xenopus laevis oocytes assessed as -50 mV current-induced channel closing time at 8 uM after 2 mins by two-electrode voltage clamp assay (reference value: 14.6 +/- 0.3 ms)
[6] = target: Potassium voltage-gated channel subfamily A member 1 (Mus musculus) (UniProt P16388); assay: Inhibition of mouse Kv1.1 channel expressed in Xenopus laevis oocytes assessed as decrease in +60 mV current-induced time constant of activation at 8 uM after 2 mins by two-electrode voltage clamp assay relative to control
[7] = target: Potassium voltage-gated channel subfamily A member 1 (Mus musculus) (UniProt P16388); assay: Inhibition of mouse Kv1.1 channel expressed in Xenopus laevis oocytes assessed as reduction of current amplitude at 15 uM after 2 mins by two-electrode voltage clamp assay relative to control
[8] = target: Potassium voltage-gated channel subfamily A member 1 (Mus musculus) (UniProt P16388); assay: Inhibition of mouse Kv1.1 channel expressed in Xenopus laevis oocytes assessed as -50 mV current-induced channel closing time at 15 uM after 2 mins by two-electrode voltage clamp assay (reference value: 14.6 +/- 0.3 ms)
[9] = target: Potassium voltage-gated channel subfamily A member 1 (Mus musculus) (UniProt P16388); assay: Inhibition of mouse Kv1.1 channel expressed in Xenopus laevis oocytes assessed as decrease in +60 mV current-induced time constant of activation at 15 uM after 2 mins by two-electrode voltage clamp assay relative to control

fold change (FC) [1] | TIME [2] [h] | fold change (FC) [3] | Structure (SMILES) | inhibition [4] [%] | TIME [5] [h] | fold change (FC) [6] | fold change (FC) [7] | TIME [8] [h] | fold change (FC) [9]
0.59 | 9.28e-06 | 5 | NCCc1c(Sc2[nH]c3cc(Br)ccc3c2CCN)[nH]c2cc(Br)ccc12 |  |  |  |  |  | 
 |  |  | NCCc1c(SSSc2[nH]c3cc(Br)ccc3c2CCN)[nH]c2cc(Br)ccc12 | 35 | 4.06e-06 | 3 |  |  | 
 |  |  | NCCc1c(SSc2[nH]c3cc(Br)ccc3c2CCN)[nH]c2cc(Br)ccc12 | 15 | 4.94e-06 | 3 | 0.69 | 3.81e-06 | 5
